Experimental data as given in patent publication US9969758B2, “Antimicrobial compounds” (BIOMERIEUX, priority 2014, dated 2018).
Converted amounts (≈) assume the structure as drawn.

Legend:
E. coli (53) = test: MIC by agar dilution; assay type: cell-based, Escherichia coli
From the text: (§1) Bacterial isolates. […] These included Citrobacter freundii (n=5), other species of Citrobacter (n=4), Enterobacter aerogenes (n=1), Enterobacter cloacae (n=27), Escherichia coli (n=53), Klebsiella oxytoca (n=5), Klebsiella pneumoniae (n=87), Kluyvera spp (n=1), Proteus mirabilis (n=8), Providencia rettgeri (n=2), Salmonella spp (n=3), and Serratia marcescens (n=1). Among these 197 isolates, there were 128 (65%) carbapenemase producers, including; 87 with NDM-1, 9 with IMP, 11 with KPC, 14 with OXA-48 and 7 with VIM. The majority of the carbapenemase producers jointly produced broad-spectrum β-lactamases (BSBL) or cephalosporinases (AmpC β-lactamases), but the latter are not documented for the sake of clarity.
(§2) Determining the minimum inhibitory concentrations (MIC). All the MICs were determined using an agar dilution method. This required use of a medium without a defined antagonist (peptone-free), prepared as described previously with the inclusion of 2% horse blood lysed with saponin, 25.0 μg/mL of NAD and 25.0 μg/mL of hemin [17]. The compounds tested were dissolved in sterile deionised water and incorporated into the agar medium in a concentration range of 0.0031 to 8.0 μg/mL (0.016 to 32 μg/mL for gram-positive bacteria). All the isolates were prepared at a density equivalent to 0.5 McFarland units in sterile deionised water using a densitometer (approximately 1.5×10^8 CFU/mL), and then diluted to 1 for 15. An aliquot of 1 μL of each diluted suspension was then placed onto plates with a multispot inoculator to give the final recommended inoculation of 10 000 CFU/spot. The MICs of fosfomycin were determined by the same method, except that the IsoSensitest medium (Oxoid, Basingstoke, United Kingdom) was used, plus 25.0 μg/mL of glucose-6-phosphate (Sigma, Poole, United Kingdom) and an extended range of fosfomycin concentrations. All the dishes (including the antimicrobial-free controls) were incubated for 22 hours at 37° C. All the tests were performed on at least two independent replicates in order to examine the reproducibility.

E. faecium (34) = test: MIC by agar dilution; assay type: cell-based, Enterococcus faecium
From the text: (§3) A collection of 50 isolates of Staphylococci aureus included 36 strains of methicillin-resistant S. aureus (MRSA) frequently encountered in Europe, including strains isolated in Belgium, Finland, France, Germany and the United Kingdom. Another strain of MRSA, NCTC 11939, was included as a control, as well as a methicillin-sensitive control (NCTC 6571). Twelve other isolates of methicillin-sensitive Staphylococcus aureus (MSSA) recently collected from blood cultures were also included. Finally, 50 isolates of enterococci included two control strains (Enterococcus faecalis NCTC 755 and Enterococcus faecium NCTC 7171) and 48 isolates originating from clinical samples obtained from at least three different hospitals. The clinical isolates included E. faecalis (n=10), E. faecium (n=33), Enterococcus casseliflavus (n=3), Enterococcus gallinarum (n=2).
as §2

[1] = tested on: glycopeptide-resistant enterococci; test: MIC by agar dilution; assay type: cell-based
From the text: as §3, §2

[2] = tested on: methicillin-resistant Staphylococcus aureus; test: MIC by agar dilution; assay type: cell-based
From the text: as §3, §2

All Enterococci (50) = test: MIC by agar dilution; assay type: cell-based
From the text: as §3, §2

[3] = tested on: methicillin-sensitive Staphylococcus aureus; test: MIC by agar dilution; assay type: cell-based
From the text: as §3, §2

E. faecalis (11) = test: MIC by agar dilution; assay type: cell-based, Enterococcus faecalis; settings: Enterococcus faecalis
From the text: as §3, §2

K. pneumoniae (87) = test: MIC by agar dilution; assay type: cell-based, Klebsiella pneumoniae; settings: Klebsiella pneumoniae
From the text: as §1, §2

S. marcescens (n=1) = test: MIC by agar dilution; assay type: cell-based, Serratia marcescens
From the text: as §1
(§4) Determining the minimum inhibitory concentrations (MIC). All the MICs were determined using an agar dilution method. This required use of a medium without a defined antagonist (peptone-free), prepared as described previously with the inclusion of 2% horse blood lysed with saponin, 25.0 μg/mL of NAD and 25.0 μg/mL of hemin [17]. […] The MICs of fosfomycin were determined by the same method, except that the IsoSensitest medium (Oxoid, Basingstoke, United Kingdom) was used, plus 25.0 μg/mL of glucose-6-phosphate (Sigma, Poole, United Kingdom) and an extended range of fosfomycin concentrations. […]

K. oxytoca = test: MIC by agar dilution; assay type: cell-based, Klebsiella oxytoca; settings: five isolates of K. oxytoca
From the text: as §1, §4

Salmonella isolates = test: MIC by agar dilution; assay type: cell-based, Salmonella spp; settings: Salmonella, read-out: MICs
From the text: as §1, §4

All S. aureus (50) = test: MIC by agar dilution; assay type: cell-based, Staphylococcus aureus
From the text: as §3, §2

E. cloacae (27) = test: MIC by agar dilution; assay type: cell-based, Enterobacter cloacae
From the text: as §1, §2

E. aerogenes (n=1) = test: MIC by agar dilution; assay type: cell-based, Enterobacter aerogenes
From the text: as §1, §4

[4] = tested on: Enterobacteriaceae with a broad-spectrum β-lactamase; test: MIC by agar dilution; assay type: cell-based
From the text: as §1, §2

Enterobacteriaceae (197) = test: MIC by agar dilution; assay type: cell-based
From the text: as §1, §2

Citrobacter (n=9) = test: MIC by agar dilution; assay type: cell-based
From the text: as §1, §2

[5] = tested on: carbapenemase-producing Enterobacteriaceae; test: MIC by agar dilution; assay type: cell-based
From the text: as §1, §2

AmpC (22) = test: MIC by agar dilution; assay type: cell-based, Enterobacteriaceae
From the text: as §1, §2

Kluyvera sp. (n=1) = test: MIC by agar dilution; assay type: cell-based, Kluyvera spp
From the text: as §1, §4

Escherichia coli = test: Growth and colour on Salmonella detection medium; assay type: cell-based; settings: added to the chromID Salmonella medium (0.002 g/L)
From the text: The present Example 3 aims to compare the detection specificity of a reaction medium according to the invention, intended to detect bacteria of the genus Salmonella, namely the medium “modified chromlD Salmonella” against a reference detection medium for the same bacteria, namely the medium “chromlD Salmonella”.
The respective compositions of the reaction medium according to the present invention and of the reference reaction medium are presented below, within Table 2.

[6] = read-out: Modal MIC (most frequent MIC)

C[C@H](NC(=O)[C@@H](N)CCl)P(=O)(O)O [β-Cl-Alafosfalin, β-chloro-L-alanyl-L-1-aminoethylphosphonic acid]
concentration by which growth of all the isolates was inhibited (E. coli (53); 53 isolates of E. coli): 0.5 µg/mL | activity relative to that of alafosfalin (E. coli (53); E. coli): at least twice | activity relative to that of fosfomycin (E. coli (53); E. coli): at least eight | MIC Range (E. coli (53); E. coli (53)): ≤0.031-0.5 ^ μg/mL | MIC50 (E. coli (53); Escherichia coli): 0.063 µg/mL (≈ 0.273 µM) | MIC90 (E. coli (53); Escherichia coli): 0.125 µg/mL (≈ 0.542 µM) | MIC (E. coli (53); Escherichia coli, read-out: Modal MIC (most frequent MIC)): 0.063 µg/mL (≈ 0.273 µM) | MIC Range (E. faecium (34); E. faecium (34)): 2 to 32 µg/mL | MIC50 (E. faecium (34); Enterococcus faecium): 4 µg/mL (≈ 17.3 µM) | MIC90 (E. faecium (34); Enterococcus faecium): 8 µg/mL (≈ 34.7 µM) | MIC (E. faecium (34); Enterococcus faecium, read-out: Modal MIC (most frequent MIC)): 4 µg/mL (≈ 17.3 µM) | MIC50 [1]: 8 µg/mL (≈ 34.7 µM) | MIC90 [1]: 16 µg/mL (≈ 69.4 µM) | MIC [1, 6]: 4 µg/mL (≈ 17.3 µM) | MIC Range ([2]; MRSA (37)): 0.125 to 2 µg/mL | concentration by which all the isolates were inhibited ([2]; MRSA isolates): 2.0 µg/mL | MIC50 ([2]; Staphylococcus aureus, MRSA): 2 µg/mL (≈ 8.67 µM) | MIC90 ([2]; Staphylococcus aureus, MRSA): 2 µg/mL (≈ 8.67 µM) | MIC ([2]; Staphylococcus aureus, MRSA, read-out: Modal MIC (most frequent MIC)): 2 µg/mL (≈ 8.67 µM) | MIC50 (All Enterococci (50)): 8 µg/mL (≈ 34.7 µM) | MIC90 (All Enterococci (50)): 16 µg/mL (≈ 69.4 µM) | MIC (All Enterococci (50); [6]): 8 µg/mL (≈ 34.7 µM) | MIC Range ([3]; MSSA (13)): 0.5 to 4 µg/mL | MIC50 ([3]; Staphylococcus aureus, MSSA): 1 µg/mL (≈ 4.34 µM) | MIC90 ([3]; Staphylococcus aureus, MSSA): 2 µg/mL (≈ 8.67 µM) | MIC ([3]; Staphylococcus aureus, MSSA, read-out: Modal MIC (most frequent MIC)): 1 µg/mL (≈ 4.34 µM) | MIC50 (E. faecalis (11)): 8 µg/mL (≈ 34.7 µM) | MIC90 (E. faecalis (11)): 16 µg/mL (≈ 69.4 µM) | MIC (E. faecalis (11); [6]): 8 µg/mL (≈ 34.7 µM) | MIC50 (K. pneumoniae (87)): 1 µg/mL (≈ 4.34 µM) | MIC90 (K. pneumoniae (87)): 8 µg/mL (≈ 34.7 µM) | MIC (K. pneumoniae (87); [6]): 1 µg/mL (≈ 4.34 µM) | percent of isolates inhibited at 8 µg/mL (K. pneumoniae (87); read-out: isolates inhibited): 93% | concentration to which all the isolates were sensitive (S. marcescens (n=1)): ≤ 2 µg/mL | concentration by which all isolates were inhibited (K. oxytoca): ≤ 2 µg/mL | MIC (Salmonella isolates): 2 to 4 µg/mL (≈ 8.67 to 17.3 µM) | MIC Range (All S. aureus (50); All S. aureus (50)): 0.125 to 4 µg/mL | MIC50 (All S. aureus (50); Staphylococcus aureus): 1 µg/mL (≈ 4.34 µM) | MIC90 (All S. aureus (50); Staphylococcus aureus): 2 µg/mL (≈ 8.67 µM) | MIC (All S. aureus (50); Staphylococcus aureus, read-out: Modal MIC (most frequent MIC)): 2 µg/mL (≈ 8.67 µM) | MIC Range (E. cloacae (27); E. cloacae (27)): 0.063 to 1 µg/mL | concentration by which all the isolates were inhibited (E. cloacae (27); E. cloacae isolates (n=27)): 1 µg/mL | MIC50 (E. cloacae (27); Enterobacter cloacae): 0.5 µg/mL (≈ 2.17 µM) | MIC90 (E. cloacae (27); Enterobacter cloacae): 0.5 µg/mL (≈ 2.17 µM) | MIC (E. cloacae (27); Enterobacter cloacae, read-out: Modal MIC (most frequent MIC)): 0.5 µg/mL (≈ 2.17 µM) | concentration to which all the isolates were sensitive (E. aerogenes (n=1)): ≤ 2 µg/mL | MIC50 [4]: 0.5 µg/mL (≈ 2.17 µM) | MIC90 [4]: > 8 µg/mL | MIC [4, 6]: 0.063 µg/mL (≈ 0.273 µM) | MIC50 (Enterobacteriaceae (197)): 0.5 µg/mL (≈ 2.17 µM) | MIC90 (Enterobacteriaceae (197)): 8 µg/mL (≈ 34.7 µM) | MIC (Enterobacteriaceae (197); [6]): 1 µg/mL (≈ 4.34 µM) | concentration to which all the isolates were sensitive (Citrobacter (n=9)): ≤ 2 µg/mL | MIC50 [5]: 0.5 µg/mL (≈ 2.17 µM) | MIC90 [5]: 2 µg/mL (≈ 8.67 µM) | MIC [5, 6]: 1 µg/mL (≈ 4.34 µM) | MIC50 (AmpC (22)): 2 µg/mL (≈ 8.67 µM) | MIC90 (AmpC (22)): > 8 µg/mL | MIC (AmpC (22); [6]): > 8 µg/mL | concentration to which all the isolates were sensitive (Kluyvera sp. (n=1)): ≤ 2 µg/mL | effect on the osidase activities of the strains of Escherichia coli (Escherichia coli): selectively inhibit
